Results from ChEMBL document CHEMBL1139781, “Pyrazolo[3,4-d]pyrimidines as potent inhibitors of the insulin-like growth factor receptor (IGF-IR)” (Bioorg Med Chem Lett, 2007).

Legend:
[1] = target: T1, Insulin-like growth factor 1 receptor (Homo sapiens, UniProt P08069); experiment: Inhibition of human IGF1R expressed in Sf21 cells by time-resolved fluorescence assay
[2] = target: T1, Insulin-like growth factor 1 receptor; experiment: Inhibition IGF1R phosphorylation in human MiaPaCa2 cells; assay type: cell-based
[3] = Bioavailability in mouse; assay type: ADME, organism-based; settings: in vivo
Mus musculus [4] = experiment: Dose normalized AUC in po dosed mouse; assay type: ADME, organism-based; settings: in vivo
Mus musculus [5] = experiment: Dose normalized AUC in iv dosed mouse; assay type: ADME, organism-based; settings: in vivo
[6] = Plasma clearance in mouse; assay type: ADME, organism-based
[7] = Half life in mouse; assay type: ADME, organism-based; settings: in vivo
Mus musculus [8] = experiment: In vivo inhibition of IFG1R autophosphorylation in C57BL/6 mouse lung at 12.5 mg/kg, po after 4 hrs; assay type: organism-based; design: dose 12.5 mg/kg, route oral; settings: C57BL6, po
[9] = Drug concentration in C57BL/6 mouse plasma at 12.5 mg/kg, po after 4 hrs; assay type: ADME, organism-based, C57BL6; design: dose 12.5 mg/kg, route oral

T1 sequence (P08069 31-736 limits assumed): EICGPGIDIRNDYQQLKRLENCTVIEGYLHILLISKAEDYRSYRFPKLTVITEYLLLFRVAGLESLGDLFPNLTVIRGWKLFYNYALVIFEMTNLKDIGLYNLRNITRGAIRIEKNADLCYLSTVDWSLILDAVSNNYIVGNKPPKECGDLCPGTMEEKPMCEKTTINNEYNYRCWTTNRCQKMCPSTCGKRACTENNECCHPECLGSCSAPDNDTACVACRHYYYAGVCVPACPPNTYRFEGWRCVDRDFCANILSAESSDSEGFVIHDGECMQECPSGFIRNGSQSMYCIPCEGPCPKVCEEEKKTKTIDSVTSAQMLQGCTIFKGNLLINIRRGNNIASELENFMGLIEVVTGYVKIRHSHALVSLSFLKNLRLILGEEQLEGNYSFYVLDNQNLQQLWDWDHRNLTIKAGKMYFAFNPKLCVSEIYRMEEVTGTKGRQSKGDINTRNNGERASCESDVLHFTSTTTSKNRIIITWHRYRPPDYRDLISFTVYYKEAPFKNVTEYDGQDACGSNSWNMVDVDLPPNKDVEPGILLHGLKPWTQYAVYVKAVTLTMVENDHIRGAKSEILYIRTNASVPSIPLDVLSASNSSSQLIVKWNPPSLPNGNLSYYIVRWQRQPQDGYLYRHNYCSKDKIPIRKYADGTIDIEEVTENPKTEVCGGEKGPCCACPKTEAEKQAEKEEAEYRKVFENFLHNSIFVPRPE
T1 sequence (P08069 741-1367 limits assumed): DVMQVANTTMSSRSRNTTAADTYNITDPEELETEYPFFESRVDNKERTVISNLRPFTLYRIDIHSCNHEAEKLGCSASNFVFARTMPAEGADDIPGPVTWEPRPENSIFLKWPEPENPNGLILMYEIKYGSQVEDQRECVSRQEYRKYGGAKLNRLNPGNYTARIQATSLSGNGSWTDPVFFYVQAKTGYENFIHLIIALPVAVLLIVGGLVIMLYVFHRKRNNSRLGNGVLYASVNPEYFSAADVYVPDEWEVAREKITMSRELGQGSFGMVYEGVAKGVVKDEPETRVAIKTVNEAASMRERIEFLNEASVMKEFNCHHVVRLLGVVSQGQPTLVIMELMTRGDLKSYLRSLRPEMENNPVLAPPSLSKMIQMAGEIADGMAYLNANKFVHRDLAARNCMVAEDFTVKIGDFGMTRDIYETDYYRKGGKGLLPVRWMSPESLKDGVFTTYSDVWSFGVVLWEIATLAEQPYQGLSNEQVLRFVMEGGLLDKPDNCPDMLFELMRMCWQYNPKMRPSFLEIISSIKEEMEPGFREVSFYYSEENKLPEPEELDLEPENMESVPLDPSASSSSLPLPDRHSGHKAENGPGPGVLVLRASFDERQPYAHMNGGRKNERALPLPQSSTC

With Cc1cccc(Cc2nc3ccc(-c4nn([C@H]5CC[C@H](N6CCOCC6)CC5)c5ncnc(N)c45)cc3[nH]2)c1 as the compound, how does the IC50 [1] read?
The IC50 was 186 nM.

And the IC50 [2]?
The IC50 was 267 nM.

For Nc1ncnc2c1c(-c1ccc3nc(Cc4ccc(Cl)cc4)[nH]c3c1)nn2[C@H]1CC[C@H](N2CCOCC2)CC1, which IC50 [1] is on record?
Its IC50 is 642 nM.

And the IC50 [2]?
The IC50 was 637 nM.

Which IC50 [1] does the source give for Nc1ncnc2c1c(-c1ccc3nc(Cc4ccccn4)[nH]c3c1)nn2[C@H]1CC[C@H](N2CCOCC2)CC1 here?
Its IC50 is 2340 nM.

What about the IC50 [2] of the same compound?
The IC50 was 2650 nM.

Which IC50 [1] does the source give for COc1ccccc1Cc1nc2ccc(-c3nn([C@H]4CC[C@H](N5CCOCC5)CC4)c4ncnc(N)c34)cc2[nH]1 here?
Its IC50 is 81 nM.

What about the IC50 [2] of the same compound?
The IC50 was 142 nM.

With Nc1ncnc2c1c(-c1ccc3nc(Cc4ccc(F)c(F)c4)[nH]c3c1)nn2[C@H]1CC[C@H](N2CCOCC2)CC1 as the compound, how does the IC50 [1] read?
Its IC50 is 674 nM.

What about the IC50 [2] of the same compound?
Its IC50 is 819 nM.

With Nc1ncnc2c1c(-c1ccc3[nH]c(-c4ccccc4)nc3c1)nn2[C@H]1CC[C@H](N2CCOCC2)CC1 as the compound, how does the IC50 [1] read?
The IC50 was 176 nM.

And the IC50 [2]?
The IC50 was 787 nM.

For Nc1ncnc2c1c(-c1ccc3nc(Cc4cccs4)[nH]c3c1)nn2[C@H]1CC[C@H](N2CCOCC2)CC1, which bioavailability [3] is on record?
Its bioavailability is 9%.

What about the IC50 [1] of the same compound?
The IC50 was 23 nM.

What about the IC50 [2] of the same compound?
The IC50 was 56 nM.

What about the AUC (Mus musculus [4]) of the same compound?
The AUC was 0.039 µmol·h/L/mg/kg.

What about the AUC (Mus musculus [5]) of the same compound?
The AUC was 0.42 µmol·h/L/mg/kg.

What about the clearance [6] of the same compound?
Its clearance is 76.7 mL/min/kg.

And the half-life [7]?
Its half-life is 0.6 h.

With Nc1ncnc2c1c(-c1ccc3nc(Cc4ccccc4)[nH]c3c1)nn2[C@H]1CC[C@H](N2CCOCC2)CC1 as the compound, how does the bioavailability [3] read?
Its bioavailability is 15%.

What about the IC50 [1] of the same compound?
Its IC50 is 64 nM.

And the IC50 [2]?
The IC50 was 94 nM.

And the AUC (Mus musculus [4])?
Its AUC is 0.16 µmol·h/L/mg/kg.

What about the AUC (Mus musculus [5]) of the same compound?
The AUC was 1.1 µmol·h/L/mg/kg.

What about the clearance [6] of the same compound?
Its clearance is 38.3 mL/min/kg.

What about the half-life [7] of the same compound?
Its half-life is 1 h.

Which IC50 [1] does the source give for Cc1ccccc1Cc1nc2ccc(-c3nn([C@H]4CC[C@H](N5CCOCC5)CC4)c4ncnc(N)c34)cc2[nH]1 here?
Its IC50 is 38 nM.

What about the IC50 [2] of the same compound?
Its IC50 is 117 nM.

For CN1CCN([C@H]2C[C@@H](c3nc(-c4ccc5ccc(-c6ccccc6)nc5c4)c4c(N)nccn43)C2)CC1, which IC50 [1] is on record?
Its IC50 is 37 nM.

And the IC50 [2]?
The IC50 was 58 nM.

For Cc1nc(Cc2nc3ccc(-c4nn([C@H]5CC[C@H](N6CCOCC6)CC5)c5ncnc(N)c45)cc3[nH]2)cs1, which IC50 [1] is on record?
The IC50 was 3310 nM.

And the IC50 [2]?
Its IC50 is 1540 nM.

Which IC50 [1] does the source give for Nc1ncnc2c1c(-c1ccc3nc(Cc4ccccc4F)[nH]c3c1)nn2[C@H]1CC[C@H](N2CCOCC2)CC1 here?
The IC50 was 51 nM.

What about the IC50 [2] of the same compound?
The IC50 was 168 nM.

With Nc1ncnc2c1c(-c1ccc3[nH]c(Cc4cccc(Cl)c4Cl)nc3c1)nn2[C@H]1CC[C@H](N2CCOCC2)CC1 as the compound, how does the IC50 [1] read?
Its IC50 is 2320 nM.

What does the source list for Nc1ncnc2c1c(-c1ccc3nc(Cc4ccc(F)cc4)[nH]c3c1)nn2[C@H]1CC[C@H](N2CCOCC2)CC1?
IC50 [1]: 924 nM; IC50 [2]: 1250 nM

For Nc1ncnc2c1c(-c1ccc3nc(Cc4ccsc4)[nH]c3c1)nn2[C@H]1CC[C@H](N2CCOCC2)CC1, which IC50 [1] is on record?
Its IC50 is 32 nM.

And the IC50 [2]?
Its IC50 is 84 nM.

With Nc1ncnc2c1c(-c1ccc3nc(Cc4cccc(Cl)c4)[nH]c3c1)nn2[C@H]1CC[C@H](N2CCOCC2)CC1 as the compound, how does the IC50 [1] read?
Its IC50 is 123 nM.

What about the IC50 [2] of the same compound?
The IC50 was 372 nM.

Which results are given for Nc1ncnc2c1c(-c1ccc3[nH]c(Cc4c(Cl)cccc4Cl)nc3c1)nn2[C@H]1CC[C@H](N2CCOCC2)CC1?
IC50 [1]: 125 nM; IC50 [2]: 252 nM

Which results are given for Nc1ncnc2c1c(-c1ccc3nc(Cc4ccccc4Cl)[nH]c3c1)nn2[C@H]1CC[C@H](N2CCOCC2)CC1?
bioavailability [3]: 28%; inhibition at 12.5 mg/kg (Mus musculus [8]): 92%; concentration at 4 h [9]: 2400 nM; IC50 [1]: 37 nM; IC50 [2]: 90 nM; AUC (Mus musculus [4]): 0.43 µmol·h/L/mg/kg; AUC (Mus musculus [5]): 1.5 µmol·h/L/mg/kg; clearance [6]: 20 mL/min/kg; half-life [7]: 1.2 h

Which results are given for Cc1cc(-c2nn([C@H]3CC[C@H](N4CCOCC4)CC3)c3ncnc(N)c23)cc2[nH]c(Cc3ccccc3)nc12?
IC50 [1]: 4330 nM; IC50 [2]: 2790 nM

Which results are given for Nc1ncnc2c1c(-c1ccc3nc(Cc4cc(F)cc(F)c4)[nH]c3c1)nn2[C@H]1CC[C@H](N2CCOCC2)CC1?
IC50 [1]: 152 nM; IC50 [2]: 183 nM

Which results are given for Nc1ncnc2c1c(-c1ccc3nc(Cc4c(F)cccc4F)[nH]c3c1)nn2[C@H]1CC[C@H](N2CCOCC2)CC1?
IC50 [1]: 79 nM; IC50 [2]: 104 nM

For Nc1ncnc2c1c(-c1ccc3nc(Cc4cccc(F)c4F)[nH]c3c1)nn2[C@H]1CC[C@H](N2CCOCC2)CC1, which IC50 [1] is on record?
The IC50 was 173 nM.

And the IC50 [2]?
The IC50 was 197 nM.

With Cc1ccc(Cc2nc3ccc(-c4nn([C@H]5CC[C@H](N6CCOCC6)CC5)c5ncnc(N)c45)cc3[nH]2)cc1 as the compound, how does the IC50 [1] read?
The IC50 was 70 nM.

What about the IC50 [2] of the same compound?
The IC50 was 257 nM.

Which results are given for Nc1ncnc2c1c(-c1ccc3nc(Cc4ccc(Cl)c(Cl)c4)[nH]c3c1)nn2[C@H]1CC[C@H](N2CCOCC2)CC1?
IC50 [1]: 488 nM; IC50 [2]: 429 nM

Which IC50 [1] does the source give for Cn1c(Cc2ccccc2)nc2cc(-c3nn([C@H]4CC[C@H](N5CCOCC5)CC4)c4ncnc(N)c34)ccc21 here?
The IC50 was 35 nM.

And the IC50 [2]?
The IC50 was 132 nM.

With Nc1ncnc2c1c(-c1ccc3[nH]c(Cc4c(F)cccc4Cl)nc3c1)nn2[C@H]1CC[C@H](N2CCOCC2)CC1 as the compound, how does the IC50 [1] read?
The IC50 was 90 nM.

What about the IC50 [2] of the same compound?
Its IC50 is 113 nM.

For Nc1ncnc2c1c(-c1ccc3nc(Cc4cccc(F)c4)[nH]c3c1)nn2[C@H]1CC[C@H](N2CCOCC2)CC1, which IC50 [1] is on record?
Its IC50 is 58 nM.

And the IC50 [2]?
Its IC50 is 140 nM.

With Nc1ncnc2c1c(-c1ccc3nc(Cc4ccc5ccccc5c4)[nH]c3c1)nn2[C@H]1CC[C@H](N2CCOCC2)CC1 as the compound, how does the IC50 [1] read?
The IC50 was 1310 nM.

What about the IC50 [2] of the same compound?
The IC50 was 2340 nM.

With Nc1ncnc2c1c(-c1ccc3[nH]c(Cc4ccccc4Br)nc3c1)nn2[C@H]1CC[C@H](N2CCOCC2)CC1 as the compound, how does the IC50 [1] read?
Its IC50 is 71 nM.

And the IC50 [2]?
Its IC50 is 65 nM.
